Experimental data taken from patent publication US10343988B1, “Hydroxytyrosol thiodipropionic acid ester with antioxidant activity and a method of preparing the same” (SHAANXI UNIVERSITY OF SCIENCE AND TECHNOLOGY, priority 2019, dated 2019).
“Also recorded” adds a separate entry of the source.

Experiment: DPPH radical scavenging activity assay
Type: biochemical
Conditions: for Scavenging Activity (%) (n = 3): DPPH in methanol, 30 min, 517 nm
Excerpt: DPPH Radical Scavenging Activity Assay
2,2-Diphenyl-1-picryl hydrazyl (DPPH) is an organic compound composed of a stable organic radical. In the DPPH molecule, due to the presence of multiple electron-withdrawing —NO2 and large it bonds of the benzene ring, nitrogen free radical is stabilized. Its methanol solution is purple and has a maximum absorption peak at 517 nm. After the addition of an antioxidant, DPPH captures an electron to be paired with the free electron, and the purple fades and turns into a yellow substance. The absorption at 517 nm disappears, and the degree of fading is quantitatively related to the number of electrons it captures. Based on this principle, a spectrophotometer is used to detect the change of the absorbance of the DPPH radical and the sample solution, and the ability of the sample to provide hydrogen atoms and scavenge free radicals can be measured.
(a) Preparation of DPPH solution:measuring exact amount of 2,2-diphenyl-1-picryl hydrazyl (DPPH) and dissolving in methanol to prepare a 0.2×10^−4 mol/L DPPH solution, stored at 0° C. in dark.
(b) Preparation of sample solutions: Vc (vitamin C, positive control), hydroxytyrosol thiodipropionic acid ester, hydroxytyrosol (control), thiodipropionic acid (control), and a mixture of hydroxytyrosol and thiodipropionic acid (control) were dissolved in methanol and diluted in a concentration gradient.
Measuring the scavenging activity of the sample solutions: 2 mL of the sample solutions (table 1) at each concentration gradient was taken, 2 mL 0.2×10^−4 mol/L DPPH solution was added, the mixture was mixed and reacted at room temperature in dark for 30 minutes, and methanol was then added to adjust final volume. The absorbance Ai was measured at 517 nm. 2 mL control solution and 2 mL methanol were mixed, and the absorbance Aj was measured. 2 mL DPPH solution and 2 mL methanol were mixed, and the absorbance A0 was measured.
(d) The scavenging activity of the sample solution and control solutions is calculated according to the following calculation formula and shown in Table 3 and FIG. 3. Scavenging activity (%)=100×[1−(Ai−Aj)/A0]

[1] = sample concentration 1.648 μg/mL, room temperature, dark
[2] = sample concentration 8.242 μg/mL
[3] = sample concentration 16.484 μg/mL
[4] = sample concentration 37.969 μg/mL
[5] = sample concentration 65.938 μg/mL
[6] = sample concentration 131.875 μg/mL
[7] = sample concentration 263.750 μg/mL
[8] = sample concentration 527.500 μg/mL
[9] = sample concentration 1055.000 μg/mL

SMILES | DPPH radical scavenging activity (result in words, comparison with controls) (1.648 to 1055 μg/mL, compared at same concentration) | Scavenging Activity (%) (n = 3) [1] | Scavenging Activity (%) (n = 3) [2] | Scavenging Activity (%) (n = 3) [3] | Scavenging Activity (%) (n = 3) [4] | Scavenging Activity (%) (n = 3) [5] | Scavenging Activity (%) (n = 3) [6] | Scavenging Activity (%) (n = 3) [7] | Scavenging Activity (%) (n = 3) [8] | Scavenging Activity (%) (n = 3) [9]
O=C(CCSCCC(=O)OCCc1ccc(O)c(O)c1)OCCc1ccc(O)c(O)c1 [A, bis(3,4-dihydroxyphenethyl) 3,3′-thiodipropanoate] | obvious DPPH radical scavenging activity in a concentration dependent manner; also recorded: better DPPH radical scavenging activity than hydroxytyrosol (B), thiodipropionic acid (C), and a 2:1 physical mixture of hydroxytyrosol and thiodipropionic acid (D) at same concentration | 32.44% | 42.37% | 52.29% | 66.79% | 79.39% | 90.01% | 96.95% | 97.71% | 98.09%
O=C1O[C@H]([C@@H](O)CO)C(O)=C1O [Vc, Vitamin C] |  | 34.01% | 37.06% | 44.67% | 67.51% | 95.43% | 97.46% | 98.98% | 99.49% | 99.49%
OCCc1ccc(O)c(O)c1 [B, 4-(2-hydroxyethyl)-1,2-benzenediol] |  | 8.44% | 10.97% | 22.78% | 29.96% | 43.04% | 62.87% | 73.00% | 75.11% | 75.95%
O=C(O)CCSCCC(=O)O [C, 3,3′-thiodipropionic acid] |  | 3.24% | 4.86% | 9.72% | 16.19% | 20.65% | 27.13% | 31.58% | 32.39% | 38.06%
